{
  "source": "patent US20070092577A1",
  "about": "“Dietary calcium for reducing the production of reactive oxygen species” (University of Tennessee Research Foundation, priority 2005, published 2007)",
  "key": {"[1]": {"test_system": "TNFα", "assay": "TNFα expression in RAW 264 macrophages", "type": "cell-based", "protocol": "(§1) RAW 264 macrophages and 3T3-L1 preadipocytes (American Type Culture Collection) were incubated at a density of 8000 cells/cm2 (10 cm2 dish) and grown in Dulbecco's modified Eagle's medium (DMEM) containing 10% FBS and antibiotics (adipocyte medium) at 37° C. in 5% CO2 in air. Confluent 3T3-L1 preadipocytes were induced to differentiate with a standard differentiation medium consisting of DMEM-F10 (1:1, vol/vol) medium supplemented with 1% FBS, 1 μM dexamethasone, IBMX (0.5 mM) and antibiotics (1% Penicillin-Streptomycin). Preadipocytes were maintained in this differentiation medium for 3 days and subsequently cultured in adipocyte medium. Cultures were re-fed every 2-3 days to allow 90% cells to reach fully differentiation for 3T3-L1 adipocytes or grow to a confluence for RAW 264 before conducting chemical treatment.\n(§2) Human adipocytes (Zen-Bio, Inc.), 3T3-L1 adipocytes, RAW264 macrophages were obtained and co-cultured by using transwell inserts with 0.4 μm porous membranes (Corning) to separate adipocytes and macrophages. All data are expressed as mean±SEM. Data were evaluated for statistical significance by analysis of one-way or two-way variance (ANOVA; means with different letter differ, p<0.05).\n(§3) Adipocyte and muscle 18s, CD14, TNFα, MIP, M-CSF, IL-6 and MCP-1 were quantitatively measured using a Smart Cycler Real Time PCR System (Cepheid, Sunnyvale, Calif.) with a TaqMan 1000 Core Reagent Kit (Applied Biosystems, Branchburg, N.J.). The primers and probe sets were obtained from Applied Biosystems TaqMan® Assays-on-Demand™ Gene Expression primers and probe set collection according to manufacture's instruction. […] Reactions of quantitative RT-PCR for standards and unknown samples were also performed according to the instructions of Smart Cycler System (Cepheid, Sunnyvale, Calif.) and TaqMan Real Time PCR Core Kit (Applied Biosystems, Branchburg, N.J.). The mRNA quantitation for each sample was further normalized using the corresponding 18s quantitation."}, "[2]": {"test_system": "3T3-L1 adipocytes", "assay": "Mouse cytokine antibody array of culture medium", "type": "cell-based", "protocol": "as §1, §2\nA TansSignal™ mouse cytokine antibody array kit (Panomics, Fremont, Calif.) was used to detect cytokine protein released in culture medium according to the manufacture's instruction. […]"}, "[3]": {"test_system": "MCP-1", "assay": "MCP-1 expression in 3T3-L1 adipocytes", "type": "cell-based, mouse", "details": "calcitriol 10 nmol/L, 48 hours", "protocol": "as §1, with “Cultures were re-fed every 2-3 days to allow 90% cells to reach fully differentiation for 3T3-L1 adipocytes or grow to a confluence for RAW 264 before conducting chemical treatment.” left out\n(§4) Cells were washed with fresh adipocyte medium, re-fed with medium containing the indicated treatments, and incubated at 37° C. in 5% CO2 for 48 hours before analysis. Cell viability was measured via trypan blue exclusion.\n(§5) Adipocyte and muscle 18s, CD14, TNFα, MIP, M-CSF, IL-6 and MCP-1 were quantitatively measured using a Smart Cycler Real Time PCR System (Cepheid, Sunnyvale, Calif.) with a TaqMan 1000 Core Reagent Kit (Applied Biosystems, Branchburg, N.J.). […] Reactions of quantitative RT-PCR for standards and unknown samples were also performed according to the instructions of Smart Cycler System (Cepheid, Sunnyvale, Calif.) and TaqMan Real Time PCR Core Kit (Applied Biosystems, Branchburg, N.J.). […]"}, "[4]": {"test_system": "IL-6", "assay": "IL-6 expression in RAW 264 macrophages", "type": "cell-based", "protocol": "as §1, §2, §3"}, "[5]": {"test_system": "MIF", "assay": "MIF expression in mouse (3T3-L1) adipocytes", "type": "cell-based", "details": "calcitriol 10 nmol/L, 48 hours", "protocol": "as §1, with “Cultures were re-fed every 2-3 days to allow 90% cells to reach fully differentiation for 3T3-L1 adipocytes or grow to a confluence for RAW 264 before conducting chemical treatment.” left out\nas §4, §5"}, "[6]": {"test_system": "MIP", "assay": "MIP expression in 3T3-L1 adipocytes", "type": "cell-based, mouse", "details": "calcitriol 10 nmol/L, 48 hours", "protocol": "as §1, with “Cultures were re-fed every 2-3 days to allow 90% cells to reach fully differentiation for 3T3-L1 adipocytes or grow to a confluence for RAW 264 before conducting chemical treatment.” left out\nas §4, §5"}, "[7]": {"test_system": "CD14", "assay": "CD14 expression in mouse (3T3-L1) adipocytes", "type": "cell-based", "details": "calcitriol 10 nmol/L, 48 hours", "protocol": "as §1, with “Cultures were re-fed every 2-3 days to allow 90% cells to reach fully differentiation for 3T3-L1 adipocytes or grow to a confluence for RAW 264 before conducting chemical treatment.” left out\nas §4, §5"}, "[8]": {"test_system": "M-CSF", "assay": "M-CSF expression in 3T3-L1 adipocytes", "type": "cell-based, mouse", "details": "calcitriol 10 nmol/L, 48 hours", "protocol": "as §1, with “Cultures were re-fed every 2-3 days to allow 90% cells to reach fully differentiation for 3T3-L1 adipocytes or grow to a confluence for RAW 264 before conducting chemical treatment.” left out\nCell viability was measured via trypan blue exclusion.\nAdipocyte and muscle 18s, CD14, TNFα, MIP, M-CSF, IL-6 and MCP-1 were quantitatively measured using a Smart Cycler Real Time PCR System (Cepheid, Sunnyvale, Calif.) with a TaqMan 1000 Core Reagent Kit (Applied Biosystems, Branchburg, N.J.). […] Reactions of quantitative RT-PCR for standards and unknown samples were also performed according to the instructions of Smart Cycler System (Cepheid, Sunnyvale, Calif.) and TaqMan Real Time PCR Core Kit (Applied Biosystems, Branchburg, N.J.). The mRNA quantitation for each sample was further normalized using the corresponding 18s quantitation."}, "[9]": {"test_system": "cyclin A", "assay": "Cyclin A expression in 3T3-L1 adipocytes", "type": "cell-based, murine", "details": "added to glucose 30 mmol/L, 48 hours; nifedipine 10 μmol/L", "protocol": "3T3-L1 preadipocytes were incubated at a density of 8000 cells/cm^2 (10 cm^2 dish) and grown in Dulbecco's modified Eagle's medium (DMEM) containing 10% FBS and antibiotics (adipocyte medium) at 37° C. in 5% CO2 in air. Confluent preadipocytes were induced to differentiate with a standard differentiation medium consisting of DMEM-F 10 (1:1, vol/vol) medium supplemented with 1% FBS, 1 μM dexamethasone, IBMX (0.5 mM) and antibiotics (1% Penicillin-Streptomycin). Preadipocytes were maintained in this differentiation medium for 3 days and subsequently cultured in adipocyte medium. Cultures were re-fed every 2-3 days to allow 90% of cells to reach full differentiation before conducting chemical treatment. Chemicals were freshly diluted in adipocyte medium before treatment. […] Cell viability was measured via trypan blue exclusion. Adipocyte 18s, cyclin A, NADPH oxidase, and UCP2 were quantitatively measured using a Smart Cycler Real Time PCR System (Cepheid, Sunnyvale, Calif.) with a TaqMan 1000 Core Reagent Kit (Applied Biosystems, Branchburg, N.J.). […] Reactions of quantitative RT-PCR for standards and unknown samples were also performed according to the instructions of Smart Cycler System (Cepheid, Sunnyvale, Calif.) and TaqMan Real Time PCR Core Kit (Applied Biosystems, Branchburg, N.J.). The mRNA quantitation for each sample was further normalized using the corresponding 18s quantitation."}, "[10]": {"test_system": "CD14", "assay": "CD14 expression in human adipocytes", "type": "cell-based", "details": "calcitriol 10 nmol/L, 48 hours; p=0.008", "from_the_text": "Cell culture: Human preadipocytes used in this study were supplied by Zen-Bio (Research Triangle, N.C.). Preadipocytes were inoculated in DMEM/Ham's F-10 medium (DMEM-F10) (1:1, vol/vol) containing 10% FBS, 15 mmol/L HEPES, and antibiotics at a density of 30,000 cells/cm^2. Confluent monolayers of preadipocytes were induced to differentiate with a standard differentiation medium consisting of DMEM-F 10 (1:1, vol/vol) medium supplemented with 15 mmol/L HEPES, 3% FBS, 33 μmol/L biotin, 17 μmol/L pantothenate, 100 nmol/L insulin, […] methylisobutylxanthine, 1 μmol/L dexamethasone, 1 μmol/L BRL49653, and antibiotics. […]\nas §4, §5"}, "[11]": {"details": "co-culture with differentiated 3T3-L1 adipocytes"}, "[12]": {"details": "macrophages cultured alone, calcitriol 10 nmol/L, 48 hours"}},
  "data": [
    {"compound": "C=C1/C(=C\\C=C2/CCC[C@]3(C)[C@@H]([C@H](C)CCCC(C)(C)O)CC[C@@H]23)C[C@@H](O)C[C@@H]1O", "note": "[calcitriol, 1, 25-Dihydroxyvitamin D]", "values": [
      {"measurement": "effect on TNFα expression in macrophages in co-culture", "setting": "[1]; [11]", "result": "further enhanced"},
      {"measurement": "stimulation of TNFα expression", "setting": "[1]; [12]", "result": 91, "unit": "%"},
      {"measurement": "effect on inflammatory cytokine production", "setting": "[2]; co-culture of 3T3-L1 adipocytes with RAW264 macrophages", "result": "further stimulated inflammatory cytokine production"},
      {"measurement": "effect on release of inflammatory cytokine proteins", "setting": "[2]; differentiated 3T3-L1 adipocytes cultured alone", "result": "up-regulated production of multiple inflammatory cytokine proteins"},
      {"measurement": "effect on MCP-1 expression", "setting": "[3]", "result": "markedly stimulate"},
      {"measurement": "effect on IL-6 expression in macrophages in co-culture", "setting": "[4]; [11]", "result": "further enhanced"},
      {"measurement": "stimulation of IL-6 expression", "setting": "[4]; [12]", "result": 796, "unit": "%"},
      {"measurement": "increase of MIF expression", "setting": "[5]", "result": 50, "unit": "%"},
      {"measurement": "effect on MIP expression", "setting": "[6]", "result": "markedly stimulate"},
      {"measurement": "increase of CD14 expression", "setting": "[7]", "result": 45, "unit": "%"},
      {"measurement": "effect on M-CSF expression", "setting": "[8]", "result": "markedly stimulate"},
      {"measurement": "effect on glucose stimulated cyclin A expression", "setting": "[9]", "result": "augmented"},
      {"measurement": "increase of CD14 expression", "setting": "[10]", "result": 33, "unit": "%"}
    ]}
  ]
}
